In PubChem BioAssay (NCI):
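Here, GI50 denotes the concentration required for 50% inhibition of growth. Definition used: TGI = concentration required for complete inhibition of growth.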

Legend:
Assay in all cases: DTP human tumour cell line panel, 384-well format
[1] = test system: 786-0 renal
[2] = test system: A498 renal
[3] = test system: A549 NSCLC
[4] = test system: ACHN renal
[5] = test system: BT-549 breast
[6] = test system: CAKI-1 renal
[7] = test system: CCRF-CEM leukemia
[8] = test system: COLO 205 colon
[9] = test system: DU-145 prostate
[10] = test system: EKVX NSCLC
[11] = test system: HCC-2998 colon
[12] = test system: HCT-116 colon
[13] = test system: HCT-15 colon
[14] = test system: HL-60(TB) leukemia
[15] = test system: HOP-62 NSCLC
[16] = test system: HOP-92 NSCLC
[17] = test system: HS 578T breast
[18] = test system: HT29 colon
[19] = test system: IGROV1 ovarian
[20] = test system: K-562 leukemia
[21] = test system: KM12 colon
[22] = test system: LOX IMVI melanoma
[23] = test system: M14 melanoma
[24] = test system: MALME-3M melanoma
[25] = test system: MCF7 breast
[26] = test system: MDA-MB-231 breast
[27] = test system: MDA-MB-435 melanoma
[28] = test system: MDA-MB-468 breast
[29] = test system: MOLT-4 leukemia
[30] = test system: NCI-H226 lung
[31] = test system: NCI-H23 lung
[32] = test system: NCI-H322M lung
[33] = test system: NCI-H460 NSCLC
[34] = test system: NCI-H522 lung
[35] = test system: NCI/ADR-RES ovarian
[36] = test system: OVCAR-3 ovarian
[37] = test system: OVCAR-4 ovarian
[38] = test system: OVCAR-5 ovarian
[39] = test system: OVCAR-8 ovarian
[40] = test system: PC-3 prostate
[41] = test system: RPMI-8226 leukemia
[42] = test system: RXF 393 renal
[43] = test system: SF-268 CNS
[44] = test system: SF-295 CNS
[45] = test system: SF-539 CNS
[46] = test system: SK-MEL-28 melanoma
[47] = test system: SK-MEL-5 melanoma
[48] = test system: SK-OV-3 ovarian
[49] = test system: SN12C renal
[50] = test system: SNB-19 CNS
[51] = test system: SNB-75 CNS
[52] = test system: SW-620 colon
[53] = test system: T-47D breast
[54] = test system: TK-10 renal
[55] = test system: U251 glioblastoma
[56] = test system: UACC-257 melanoma
[57] = test system: UACC-62 melanoma
[58] = test system: UO-31 renal

Work on `COc1cc2nc(-c3cc(F)ccc3O)nc(N[C@@H]3CNC[C@H]3C(C)(C)O)c2cc1OC` yielded a GI50 [1] of 1530 nM, a TGI [1] of 2870 nM and a GI50 [2] of 1650 nM. The TGI [2] was 3.02 µM, the GI50 [3] was 1510 nM and the TGI [3] was 2910 nM. The GI50 [4] was 1750 nM, the TGI [4] was 3.18 µM and the GI50 [5] was 1310 nM. For the same compound, the TGI [5] was 2590 nM, the GI50 [6] was 1350 nM and the TGI [6] was 2660 nM. For the same compound, the GI50 [7] was 1410 nM, the TGI [7] was 2730 nM and the GI50 [8] was 1240 nM. For the same compound, the TGI [8] was 2520 nM, the GI50 [9] was 1570 nM and the TGI [9] was 2990 nM. It also gave a GI50 [10] of 1460 nM, a TGI [10] of 2790 nM and a GI50 [11] of 970 nM. The TGI [11] was 2170 nM, the GI50 [12] was 1110 nM and the TGI [12] was 2370 nM. It also gave a GI50 [13] of 1910 nM, a TGI [13] of 3.37 µM and a GI50 [14] of 1820 nM. The TGI [14] was 3.24 µM, the GI50 [15] was 1220 nM and the TGI [15] was 2490 nM. For the same compound, the GI50 [16] was 1150 nM, the TGI [16] was 2380 nM and the GI50 [17] was 1740 nM. The TGI [17] was 3.13 µM, the GI50 [18] was 1650 nM and the TGI [18] was 3.06 µM. For the same compound, the GI50 [19] was 507 nM, the TGI [19] was 1640 nM and the GI50 [20] was 1270 nM. The TGI [20] was 2550 nM, the GI50 [21] was 1340 nM and the TGI [21] was 2640 nM. For the same compound, the GI50 [22] was 1390 nM, the TGI [22] was 2710 nM and the GI50 [23] was 1830 nM. The TGI [23] was 3.25 µM, the GI50 [24] was 1600 nM and the TGI [24] was 2960 nM. For the same compound, the GI50 [25] was 1570 nM, the TGI [25] was 2950 nM and the GI50 [26] was 1400 nM. The TGI [26] was 2700 nM, the GI50 [27] was 1950 nM and the TGI [27] was 3.39 µM. The GI50 [28] was 1770 nM, the TGI [28] was 3.17 µM and the GI50 [29] was 1530 nM. The TGI [29] was 2870 nM, the GI50 [30] was 1400 nM and the TGI [30] was 2760 nM. It also gave a GI50 [31] of 1440 nM, a TGI [31] of 2770 nM and a GI50 [32] of 1630 nM. The TGI [32] was 3.02 µM, the GI50 [33] was 1470 nM and the TGI [33] was 2890 nM. For the same compound, the GI50 [34] was 1040 nM, the TGI [34] was 2220 nM and the GI50 [35] was 2240 nM. The TGI [35] was 4.99 µM, the GI50 [36] was 1820 nM and the TGI [36] was 3.23 µM. The GI50 [37] was 2390 nM, the TGI [37] was 3.88 µM and the GI50 [38] was 1670 nM. For the same compound, the TGI [38] was 3.11 µM, the GI50 [39] was 1690 nM and the TGI [39] was 3.09 µM. For the same compound, the GI50 [40] was 1560 nM, the TGI [40] was 2920 nM and the GI50 [41] was 1830 nM. It also gave a TGI [41] of 3.25 µM, a GI50 [42] of 1560 nM and a TGI [42] of 2910 nM. The GI50 [43] was 434 nM, the TGI [43] was 1620 nM and the GI50 [44] was 1880 nM. For the same compound, the TGI [44] was 3.3 µM, the GI50 [45] was 1260 nM and the TGI [45] was 2540 nM. For the same compound, the GI50 [46] was 2010 nM, the TGI [46] was 3.44 µM and the GI50 [47] was 1500 nM. It also gave a TGI [47] of 2850 nM, a GI50 [48] of 1820 nM and a TGI [48] of 3.24 µM. The GI50 [49] was 1480 nM, the TGI [49] was 2810 nM and the GI50 [50] was 1790 nM. It also gave a TGI [50] of 3.21 µM, a GI50 [51] of 1250 nM and a TGI [51] of 2510 nM. The GI50 [52] was 1820 nM, the TGI [52] was 3.24 µM and the GI50 [53] was 2460 nM. For the same compound, the TGI [53] was 3.94 µM, the GI50 [54] was 1630 nM and the TGI [54] was 3.05 µM. The GI50 [55] was 1860 nM, the TGI [55] was 3.28 µM and the GI50 [56] was 1710 nM. For the same compound, the TGI [56] was 3.1 µM, the GI50 [57] was 1620 nM and the TGI [57] was 2990 nM. It also gave a GI50 [58] of 1810 nM and a TGI [58] of 3.22 µM.
